ChEMBL document CHEMBL1149656, “Respiratory syncytial virus fusion inhibitors. Part 6: an examination of the effect of structural variation of the benzimidazol-2-one heterocycle moiety” (Bioorg Med Chem Lett, 2007)

Key:
[1] = tested on: Respiratory syncytial virus; test: Antiviral activity against RSV Long in Hep2 cells; type: functional, organism-based; details: human respiratory syncytial virus, HEp-2
[2] = Cytotoxicity against human Hep2 cells; type: cell-based, HEp-2
[3] = tested on: Respiratory syncytial virus; test: Reduction of viral RNA in lungs of RSV-infected BALB/c mouse at 50 mg/kg by RT-PCR method; type: functional, Lung
[4] = Metabolic stability in human liver microsomes; type: ADME, Microsome
[5] = tested on: Respiratory syncytial virus; test: Antiviral activity against RSV Long with F1 protein K349R mutation in Hep2 cells; type: functional, organism-based; details: hep-2

SMILES	EC50 [1]	CC50 [2]	log10 TCID50 [3]	half-life [4]	EC50 [5]
CCOC(=O)c1c(OC)c(=O)n(Cc2nc3ccccc3n2CCCCF)c2ccccc12	147 nM	61600 nM			
COC(=O)c1ccc(Cn2c(=O)c3ccccc3n(Cc3nc4ccccc4n3CCn3cnnn3)c2=O)cc1	170 nM	25300 nM			
CC(C)CCn1c(CN2C(=O)N(CC(=O)OC(C)(C)C)S(=O)(=O)c3ccccc32)nc2ccccc21	83 nM	18400 nM			
CC(C)CCn1c(Cn2c(=O)n(C3CC3)c(=O)c3ccccc32)nc2cc(CO)ccc21	314 nM	62100 nM			
CCc1cc2ccccc2n(Cc2nc3ccccc3n2CCCCF)c1=O	902 nM	85100 nM			
CC1(C)C(=O)N(Cc2nc3ccccc3n2CCCCF)c2ccccc2S1(=O)=O	7670 nM	158000 nM			
CC(C)CCn1c(CN2C(=O)C(C)(O)c3ccccc32)nc2ccccc21 (centres undefined)	97 nM	101000 nM			
CC(C)CCn1c(CN2C(=O)CS(=O)(=O)c3ccccc32)nc2ccccc21	59 nM	63000 nM			
CNCc1ccc2c(c1)nc(Cn1c(=O)n(C3CC3)c(=O)c3ccccc31)n2CCC(C)C	788 nM	17900 nM			
CC(C)CCn1c(Cn2c(=O)n(Cc3ccc(C(=O)O)cc3)c(=O)c3ccccc32)nc2ccccc21	9 nM	19300 nM			
COc1cc(=O)n(Cc2nc3ccccc3n2CCCCF)c2ccccc12	211 nM	59500 nM			
CN1C(=O)N(Cc2nc3ccccc3n2CCCS(C)(=O)=O)c2ccccc2S1(=O)=O	5730 nM	34500 nM			
O=c1c2ccccc2n(Cc2nc3ccccc3n2CCCCF)c(=O)n1C1CC1	50 nM	38200 nM			
O=c1c(Br)cc2ccccc2n1Cc1nc2ccccc2n1CCCCF	788 nM	26200 nM			
NCc1ccc2c(c1)nc(Cn1c(=O)n(CC(F)(F)F)c(=O)c3ccccc31)n2CCCCF	8 nM	11800 nM	1.6	> 1.67 h	> 500 nM
CC(C)CCn1c(Cn2c(=O)n(CC(=O)O)c(=O)c3ccccc32)nc2ccccc21	1020 nM	> 221000 nM			
CC(C)CCn1c(CN2C(=O)C(O)c3ccccc32)nc2ccccc21 (centres undefined)	164 nM	3310 nM			
CC(C)CCn1c(Cn2c(=O)n(C3CC3)c(=O)c3ccccc32)nc2cc(C(=O)O)ccc21	> 68700 nM	102000 nM			
O=C1N(Cc2nc3ccccc3n2CCCCF)c2ccccc2S(=O)(=O)N1C1CC1	432 nM	111000 nM			
NCc1ccc2c(c1)nc(Cn1c(=O)n(C3CC3)c(=O)c3ccccc31)n2CCCCF	9 nM	40600 nM	1.4	> 1.67 h	> 500 nM
CC(C)CCn1c(CN2C(=O)N(C3CC3)S(=O)(=O)c3ccccc32)nc2cc(CN)ccc21	3 nM	7030 nM			20 nM

SMILES	EC50 [1]	CC50 [2]	log10 TCID50 [3]	half-life [4]	EC50 [5]
CC1(C)C(=O)N(Cc2nc3ccccc3n2CCCC#N)c2ccccc21	19 nM	> 100000 nM			
O=C(O)c1ccc(Cn2c(=O)c3ccccc3n(Cc3nc4ccccc4n3CCn3cnnn3)c2=O)cc1	550 nM	54700 nM			
CC(C)CCn1c(CN2C(=O)C(=O)c3ccccc32)nc2ccccc21	230 nM	69800 nM			
COc1cc(=O)n(Cc2nc3cc(CN)ccc3n2CCCCO)c2ccccc12	8 nM	81500 nM			> 500 nM
CC(C)CCn1c(CN2C(=O)CSc3ccccc32)nc2ccccc21	274 nM	6780 nM			
CC(C)CCn1c(CN2C(=O)C(CC(=O)NCCc3ccccc3)c3ccccc32)nc2ccccc21 (centres undefined)	379 nM	940 nM			
CN(C)CCn1c(CN2C(=O)CCc3ccccc32)nc2ccccc21	456 nM	153000 nM			
CC(C)CCn1c(Cn2c(=O)n(C3CC3)c(=O)c3ccccc32)nc2cc(CN)ccc21	11 nM	8580 nM			
CCCCNCc1ccc2c(c1)nc(Cn1c(=O)n(C3CC3)c(=O)c3ccccc31)n2CCC(C)C	> 191000 nM	4150 nM			
CN1C(=O)N(Cc2nc3ccccc3n2CCCCO)c2ccccc2S1(=O)=O	19 nM	219000 nM			
CCOC(=O)Cn1c(=O)c2ccccc2n(Cc2nc3ccccc3n2CCn2cnnn2)c1=O	288 nM	8060 nM			
N#CCCCn1c(Cn2c(=O)n(C3CC3)c(=O)c3ccccc32)nc2ccccc21	171 nM	9050 nM			> 500 nM
CN1C(=O)N(Cc2nc3ccccc3n2CCCCF)c2ccccc2S1(=O)=O	37 nM	87700 nM			
COC(=O)c1ccc(Cn2c(=O)c3ccccc3n(Cc3nc4ccccc4n3CCC(C)C)c2=O)cc1	260 nM	11200 nM			
O=c1ccc2ccccc2n1Cc1nc2ccccc2n1CCCCF	2300 nM	103000 nM			
COC(=O)c1ccc2c(c1)nc(Cn1c(=O)n(C3CC3)c(=O)c3ccccc31)n2CCC(C)C	> 217000 nM	230 nM			
CC1(C)Sc2ccccc2N(Cc2nc3ccccc3n2CCCCF)C1=O	> 252000 nM	32600 nM			
CCOC(=O)Cn1c(=O)c2ccccc2n(Cc2nc3ccccc3n2CCC(C)C)c1=O	1860 nM	16600 nM			
Cn1c(=O)c2ccccc2n(Cc2nc3ccccc3n2CCCCF)c1=O	36 nM	> 25900 nM			
N#CCCCCn1c(CN2C(=O)CS(=O)(=O)c3ccccc32)nc2ccccc21	1340 nM	> 270000 nM			
Cn1c(=O)c2ccccc2n(Cc2nc3ccccc3n2CCCCO)c1=O	82 nM	48600 nM			

SMILES	EC50 [1]	CC50 [2]	log10 TCID50 [3]	half-life [4]	EC50 [5]
O=C(O)Cn1c(=O)c2ccccc2n(Cc2nc3ccccc3n2CCn2cnnn2)c1=O	5240 nM	213000 nM			
CC(C)CCn1c(CN2C(=O)C(Cc3ccccc3)C(=O)c3ccccc32)nc2ccccc21 (centres undefined)	1810 nM	20100 nM			
O=C1CSc2ccccc2N1Cc1nc2ccccc2n1CCCCF	1020 nM	> 96400 nM			
CS(=O)(=O)CCCn1c(Cn2c(=O)n(CC(F)(F)F)c(=O)c3ccccc32)nc2cc(CN)ccc21	21 nM	> 123000 nM			500 nM
CC(C)CCn1c(CN2C(=O)C(CC(=O)O)c3ccccc32)nc2ccccc21 (centres undefined)	705 nM	16500 nM			
CC(C)CCn1c(CN2C(=O)N(CC(=O)O)S(=O)(=O)c3ccccc32)nc2ccccc21	263 nM	60200 nM			
NCc1ccc2c(c1)nc(Cn1c(=O)n(C3CC3)c(=O)c3ccccc31)n2CCCCO	18 nM	> 181000 nM	0.45	> 1.67 h	> 500 nM
N#CCCCn1c(Cn2c(=O)oc3ccccc32)nc2ccccc21	2510 nM	> 300000 nM			
O=C1CS(=O)(=O)c2ccccc2N1Cc1nc2ccccc2n1CCCCF	229 nM	211000 nM			
O=c1c2ccccc2n(Cc2nc3ccccc3n2CCCCO)c(=O)n1C1CC1	25 nM	42600 nM			
CC(C)CCn1c(Cn2c(=O)oc3ccccc32)nc2ccccc21	44 nM	30700 nM			
CC(C)CCn1c(CN2C(=O)C(CC(=O)N(C)C)c3ccccc32)nc2ccccc21 (centres undefined)	205 nM	4670 nM			
CC(C)CCn1c(CN2C(=O)Cc3ccccc32)nc2ccccc21	32 nM	8580 nM			
CC(C)CCn1c(CN2C(=O)C(CC(=O)NCc3ccccc3)c3ccccc32)nc2ccccc21 (centres undefined)	110 nM	720 nM			
COc1cc(=O)n(Cc2nc3cc(CN)ccc3n2CCCCF)c2ccccc12	9 nM	24000 nM			> 5000 nM
O=C(O)c1c(O)c(=O)n(Cc2nc3ccccc3n2CCCCF)c2ccccc12	25900 nM	> 38600 nM			
O=c1c(O)cc2ccccc2n1Cc1nc2ccccc2n1CCCCF	> 274000 nM	20200 nM			
NCc1ccc2c(c1)nc(Cn1c(=O)n(CC(F)(F)F)c(=O)c3ccccc31)n2CCCCO	8 nM	52700 nM			> 500 nM
N#CCCCCn1c(CN2C(=O)CCc3ccccc32)nc2ccccc21	1110 nM	27100 nM			
N#CCCCn1c(CN2C(=O)N(C3CC3)S(=O)(=O)c3ccccc32)nc2ccccc21	55 nM	> 244000 nM			
